Experiments:
[1] = system: FMAL-actin plus TMR-cC0-C2; experiment: Selleck library HTS, 473 nm excitation (FLT of FMAL-actin with TMR-cC0-C2, FLT-FRET); format: binding, human; conditions: for 473-nm Δτ, Repeat 1 / 473-nm Δτ, Repeat 2: initial screen, 30 μM compound; for 473-nm z-score (based on avg Δτ): robust z-score, hit threshold ±4, 30 μM compound
Description: (§1) Fluorescence lifetime (FLT) measurements were acquired using a high-throughput FLT plate reader (Fluorescence Innovations, Inc) ([14], [27]), provided by Photonic Pharma LLC. […] The observed waveforms were analyzed as described previously ([15], [28]).
(§2) In total, 50 nl of each solution was dispensed in DMSO using an automated Echo 550 acoustic liquid dispenser (Labcyte). Compounds were formatted into the assay plates, at a final concentration of 30 μM, with the first two and second to last columns loaded with DMSO only (compound-free controls). In the final column, 30 μM of suramin was loaded as a positive control (tool compound). These assay plates were then heat-sealed using a PlateLoc Thermal Microplate Sealer (Agilent Technologies) and stored at −20 °C. Before screening, compound plates were equilibrated to room temperature (∼25 °C). […] Plates were incubated at room temperature for 60 min before recording the data with the fluorescence lifetime plate reader.
After fitting the waveforms with a single exponential decay to quantify donor FLT, the change in FLT (Δτ) was computed by performing a moving median subtraction in the order the plate was scanned with a window size of half a plate row […]. The reasons for this are twofold. Firstly, plate gradients are often observed due to the heating of the digitizer during acquisition.
To account for the necessity to correct for plate gradients in the computation of E, the median τDMSO prior to the application of the moving median correction was added to each well’s Δτ value to recover a rescaled value of τ.

TMR-cC0-C2 = experiment: Selleck library HTS, 532 nm excitation (FLT of TMR-cC0-C2 in presence of FMAL-actin); format: binding, human; conditions: for 532-nm Δτ, Repeat 1 / 532-nm Δτ, Repeat 2: initial screen, 30 μM compound; for 532-nm z-score (based on avg Δτ): robust z-score, hit threshold ±4, 30 μM compound
Description: as §1, §2
Hits that exceeded the z-score hit criteria in the donor-only screen were excluded from consideration. To remove compounds with confounding fluorescence properties, a similarity index (SI, specifically the cosine distance, Equation 5) was computed using data from the SUPR instrument by comparing a region (500–540 nm) of the donor-only spectrum (I^(a)) for each well to that of the plate-wide average DMSO spectrum (I^(b)) in the same wavelength band ([29]). Compounds that exceeded an SI robust z-score of 4 were deemed likely fluorescent compounds and removed from consideration.(5) SI=1−∑Ii(a).Ii(b)/∑Ii(a).Ii(a)∑Ii(b).Ii(b)

Row | Compound | 473-nm Δτ, Repeat 1 [1] [ns] | 473-nm Δτ, Repeat 2 [1] [ns] | 473-nm z-score (based on avg Δτ) [1] | 532-nm Δτ, Repeat 1 (TMR-cC0-C2) [ns] | 532-nm Δτ, Repeat 2 (TMR-cC0-C2) [ns] | 532-nm z-score (based on avg Δτ) (TMR-cC0-C2)
1 | O=C(c1ccc(OCCN2CCCCC2)cc1)c1c(-c2ccc(O)cc2)sc2cc(O)ccc12 [Raloxifene] | -0.490 | -0.307 | -22.27 | -0.025 | -0.147 | -5.22
2 | COc1cc2nc(N3CCN(C(=O)C4COc5ccccc5O4)CC3)nc(N)c2cc1OC (stereo not drawn) [Doxazosin] | -0.266 | -0.231 | -13.87 | 0.125 | 0.126 | 7.70
3 | CC1(C)[C@@H](O[C@H]2O[C@H](C(=O)O)[C@@H](O)[C@H](O)[C@H]2O[C@@H]2O[C@H](C(=O)O)[C@@H](O)[C@H](O)[C@H]2O)CC[C@]2(C)[C@H]3C(=O)C=C4[C@@H]5C[C@@](C)(C(=O)O)CC[C@]5(C)CC[C@@]4(C)[C@]3(C)CC[C@@H]12.N.N [Diammonium glycyrrhizinate] | 0.077 | 0.080 | 4.42 | 0.022 | 0.017 | 1.22
4 | COc1ccc(CN(CCN(C)C)c2ncccn2)cc1 [Thonzylamine] | 0.012 | -0.449 | -12.17 | -0.034 | -0.382 | -12.66
5 | Heparin sodium | 0.440 | 0.363 | 22.49 | -0.052 | -0.051 | -3.09
6 | O=c1cc(-c2ccc(O)c(O)c2)oc2cc(O)cc(O)c12 [Luteolin] | -0.309 | -0.214 | -14.58 | -0.277 | -0.302 | -17.63
7 | CNC(=O)c1cc(Oc2ccc(NC(=O)Nc3ccc(Cl)c(C(F)(F)F)c3)c(F)c2)ccn1 [Regorafenib (BAY 73-4506), Regorafenib] | -0.029 | -0.026 | -1.50 | 0.099 | 0.102 | 6.17
8 | CN1CCCN=C1/C=C/c1cccs1 [Pyrantel pamoate] | 0.313 | 0.250 | 15.79 | -0.043 | -0.100 | -4.32
9 | CO[C@@]1(NC(=O)C(C(=O)O)c2ccc(O)cc2)C(=O)N2C(C(=O)O)=C(CSc3nnnn3C)CO[C@@H]21 (stereo partly drawn) [Latamoxef sodium] | 0.128 | 0.049 | 4.99 | -0.050 | -0.037 | -2.62
10 | C[n+]1cc2c3c(ccc2c2ccc4cc5c(cc4c21)OCO5)OCO3 [Sanguinarine chloride] | -0.105 | -0.086 | -5.31 | -0.160 | -0.020 | -5.46
11 | Cc1ccc(NC(=O)c2ccc(CN3CCN(C)CC3)cc2)cc1Nc1nc(-c2cccnc2)cs1 [Masitinib (AB1010), Masitinib] | -0.336 | -0.197 | -14.87 | -0.071 | -0.082 | -4.66
